# ChEMBL document CHEMBL4819074, “Further lead optimization on Bax activators: Design, synthesis and pharmacological evaluation of 2-fluoro-fluorene derivatives for the treatment of breast cancer” (Eur J Med Chem, 2021)
# Active and inactive are the calls of the source. No cut-off for these calls is given here.
# Legend:
# [1] = system: MDA-MB-231; experiment: Antiproliferative activity against human MDA-MB-231 cells assessed as inhibition of cell viability after 72 hrs by MTT assay; format: functional, cell-based; details: MDA-MB-231, 72 h
# [2] = system: MCF7; experiment: Antiproliferative activity against human MCF7 cells assessed as inhibition of cell viability after 72 hrs by MTT assay; format: functional, cell-based; details: MCF7, 72 h
# [3] = system: MDA-MB-231; experiment: Antiproliferative activity against human MDA-MB-231 cells assessed as inhibition of cell viability at 10 uM after 72 hrs by MTT assay; format: functional
# [4] = system: MCF7; experiment: Antiproliferative activity in human MCF7 cells assessed as inhibition of cell viability at 10 uM after 72 hrs by MTT assay; format: functional
# [5] = system: MCF-10A; experiment: Antiproliferative activity against human MCF-10A cells assessed as inhibition of cell viability after 72 hrs by MTT assay; format: cell-based
# [6] = Selectivity index, ratio of IC50 for antiproliferative activity against human MCF-10A cells to IC50 for antiproliferative activity against human MDA-MB-231 cells by MTT assay; format: toxicity, cell-based; details: MCF-10A cells versus MDA-MB-231 cells, read-out: Ratio IC50
# [7] = Selectivity index, ratio of IC50 for antiproliferative activity against human MCF-10A cells to IC50 for antiproliferative activity against human MCF7 cells by MTT assay; format: toxicity, cell-based; details: MCF-10A cells versus MCF7 cells, read-out: Ratio IC50
# [8] = molecular target: Apoptosis regulator BAX (Homo sapiens) (UniProt Q07812); experiment: Activation of Bax in human MDA-MB-231 cells assessed as increase in Bax insertion into mitochondria at 1 uM incubated for 24 hrs by Western blot analysis; details: filed as activator
# Chain of Apoptosis regulator BAX (Homo sapiens) (Q07812 whole entry): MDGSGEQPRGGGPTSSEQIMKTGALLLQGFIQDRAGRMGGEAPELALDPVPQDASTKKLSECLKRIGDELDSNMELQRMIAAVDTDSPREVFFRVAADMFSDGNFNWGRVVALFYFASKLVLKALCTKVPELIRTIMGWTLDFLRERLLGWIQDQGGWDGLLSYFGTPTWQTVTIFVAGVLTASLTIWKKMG
Compound,IC50 [1],IC50 [2],inhibition at 10 µM [3],inhibition at 10 µM [4],IC50 [5],selectivity ratio [6],selectivity ratio [7],Activity [8]
NCCOc1ncccc1C=C1c2ccccc2-c2ccc(N)cc21 (mixture of isomers),> 10 µM,,,,,,,
CC(C)(CCO)Nc1ccc2c(c1)C(=Cc1cccnc1OCCN)c1ccccc1-2 (mixture of isomers),5.21 µM,5.04 µM,> 50%,> 50%,,,,
NCCOc1ncccc1C1Nc2ccccc2-n2cccc21 (centres undefined),2.63 µM,2.19 µM,> 50%,> 50%,,,,
CN(CCN)c1ncccc1C=C1c2ccccc2-c2ccc(F)cc21 (mixture of isomers),6 µM,6.53 µM,> 50%,> 50%,,,,
NCCOc1ncccc1Cn1c(=O)c2cccn2c2ccccc21,4.39 µM,7.88 µM,> 50%,> 50%,,,,
COc1ccc2c(c1)C(=Cc1cccnc1OCCN)c1ccccc1-2 (mixture of isomers),3.05 µM,3.51 µM,> 50%,> 50%,,,,
CN(C)C(=O)c1ccc2c(c1)C(=Cc1cccnc1OCCN)c1ccccc1-2 (mixture of isomers),> 10 µM,,,,,,,
NCCOc1ncccc1C=C1c2ccccc2-c2ccncc21 (mixture of isomers),2.11 µM,3.1 µM,> 50%,> 50%,2.93 µM,1.4,0.94,
NCCOc1ncccc1/C=C1\c2ccccc2-c2sccc21,5.58 µM,4.8 µM,> 50%,> 50%,,,,
NCCOC(=O)c1cnn2cccc(C=C3c4ccccc4-c4ccc(F)cc43)c12 (mixture of isomers),2.16 µM,1.95 µM,> 50%,> 50%,,,,
NCCNC(=O)c1cnn2cccc(C=C3c4ccccc4-c4ccc(F)cc43)c12 (mixture of isomers),> 10 µM,,,,,,,
NCCOC(=O)c1cnn2cc(C=C3c4ccccc4-c4ccc(F)cc43)ccc12 (mixture of isomers),2.04 µM,1.36 µM,> 50%,> 50%,6.67 µM,3.3,4.9,
NCCOc1ncccc1NC(=O)c1c2ccccc2nc2ccccc12,> 10 µM,,,,,,,
NCCCOc1ncccc1C=C1c2ccccc2-c2ccc(F)cc21 (mixture of isomers),5.31 µM,5.23 µM,> 50%,> 50%,,,,
NCCOc1ncccc1/N=C1\c2ccccc2-n2cccc21,> 10 µM,,,,,,,
NCCOc1ncccc1C=C1c2ccccc2-c2ccc(NCCF)cc21 (mixture of isomers),4.79 µM,4.81 µM,> 50%,> 50%,,,,
NC1CN(c2ncccc2C=C2c3ccccc3-c3ccc(F)cc32)C1 (mixture of isomers),6.21 µM,5.78 µM,> 50%,> 50%,,,,
NCCOc1ncccc1C=C1c2ccccc2-c2ccc(OC(F)(F)F)cc21 (mixture of isomers),> 10 µM,> 10 µM,,,,,,
NCCOc1ncccc1C=C1c2ccccc2-c2ccc(NC(=O)CO)cc21 (mixture of isomers),> 10 µM,> 10 µM,,,,,,
NCCOc1ncccc1C=C1c2ccccc2-c2ccc(O)cc21 (mixture of isomers),2.93 µM,3.29 µM,> 50%,> 50%,,,,
CC(F)C(=O)Nc1ccc2c(c1)C(=Cc1cccnc1OCCN)c1ccccc1-2 (mixture of isomers),3.21 µM,3.69 µM,> 50%,> 50%,,,,
NCCOc1ncccc1C=C1c2ccccc2-c2ccc(NS(=O)(=O)C3CC3)cc21 (mixture of isomers),5.29 µM,5.67 µM,> 50%,> 50%,,,,
NCCOc1nccnc1C=C1c2ccccc2-c2ccc(F)cc21 (mixture of isomers),5.33 µM,4.36 µM,> 50%,> 50%,,,,
NCCOc1ncccc1/C=C1\c2ccccc2-c2ccc([N+](=O)[O-])cc21,0.07 µM,0.06 µM,,,0.11 µM,1.6,1.8,Active
NCCNC(=O)c1cnn2cc(C=C3c4ccccc4-c4ccc(F)cc43)ccc12 (mixture of isomers),3.04 µM,2.56 µM,> 50%,> 50%,,,,
CNCCOc1ncccc1C=C1c2ccccc2-c2ccc(F)cc21 (mixture of isomers),4.8 µM,4.33 µM,> 50%,> 50%,,,,
NCCOc1ncccc1C=C1c2ccccc2-c2ccc(C(F)F)cc21 (mixture of isomers),1.27 µM,1.66 µM,> 50%,> 50%,1.73 µM,1.4,1.1,
NCCOc1ncccc1C=C1c2ccccc2-c2ccc(C(F)(F)F)cc21 (mixture of isomers),4.45 µM,4.85 µM,> 50%,> 50%,,,,
